US20150044244A1, “COMBINED FACILITATOR, ANTIGEN AND DNA VACCINE FOR PREVENTING AND TREATING AUTOIMMUNE DISEASES” (BEIJING ADVANCCINE BIOTECHNOLOGY CO. LTD., priority 2011, published 2015)

Legend:
[1] = tested on: Cy5+ cells in draining lymph nodes; test: Cy5-pEGFP plasmid entry into draining lymph node cells after footpad injection; format: in vivo, C57B/6 mice; conditions: 4 hrs after footpad injection
Method: To explore if amiloride would overcome low transfection efficiency in vivo, Cy5-labeled pEFGP plasmid with or without amiloride was injected into hind footpads of C57B/6 mice. After 4 hrs, draining lymph nodes were collected and Cy5+ cells were analyzed by FACS analysis. The inguinal lymph nodes from the un-injected side were also collected as negative controls. […] The other ˜10% was B220+, a B cell marker. […].

[2] = tested on: RAW264.7, DC2.4 and JAWSII; test: Maturation markers and innate cytokines after pcD-S2 with or without amiloride, cell lines; format: cell-based, mouse
Method: With respect to cell culture and inhibitor treatment, RAW264.7 and DC2.4 were cultured in DMEM/10% FCS, and JAWSII was cultured in DMEM/10% FCS with GMCSF (1000 U/ml, Peprotech, USA). Amiloride (Sigma-Aldrich, USA) was prepared as 10 mM solution and was diluted to 1 mM, 100 uM, 10 uM in DMEM medium before treatment. After culture medium was removed, cells were treated with amiloride, MβCD (5 mM, Sigma) or Fillipin (10 μg/ml, sigma) at 37° C. for 1 h. LPS (10 μg/ml, sigma) or 10 μg/ml DNA in DMEM was added at 37° C. for 0.5 h, after wash, culture medium was added and cells were cultured. Peritoneal macrophage was prepared from peritoneal cavity with 10 ml PBS wash, routinely with ˜50-70% F4/80 purity. Spleen dendritic cell was prepared from plate-adhesive cells and purified with Miltenyi DC purification kit (Miltenyi Biotec, Gladbach, Germany). Cells were treated and cultured 3 days for innate response.
Hepatitis B virus DNA vaccine (pcD-S2) encoding for HBsAg, which was conjugated with Cy5, was used to test whether amiloride-facilitated DNA entry into antigen presenting cells could positively affect innate immune responses.

[3] = tested on: HBsAg; conditions: vs pcD-S2 alone; dose dependent manner
[4] = tested on: JAWS II cells; test: Endocytosis inhibitors and CD40low phenotype in JAWS II cells; format: cell-based, mouse; conditions: for effect on CD40low phenotype: pretreatment before pOVA323+OVA323
Method: The JAWS II mouse DC line was purchased from the American Type Culture Collection (ATCC, Manassas, Va., USA) and maintained in complete growth medium containing minimum essential medium (MEM) alpha with ribonucleosides, deoxyribonucleosides, 4 mM L-glutamine, and 1 mM sodium pyruvate (Invitrogen Inc., Carlsbad, Calif., USA), and supplemented with 20% fetal bovine serum (ATCC) and 5 ng/ml murine recombinant GM-CSF (R&D Systems, Inc., Minneapolis, Minn., USA). The cells were incubated at 37° C. with 5% CO2 and treated with different antigens (10 μg/ml) such as pVAX, pOVA, OVA, pOVA323 and OVA323 for 24 h. For inhibitor treatment, JAWS II cells were pre-treated with filipin (10 μg/ml), MDC (50 μM) for 30 min at 37° C., respectively, or with amiloride (5 mM) for 10 min at 37° C., and washed with medium, then stimulated with antigens.
DCs take up exogenous antigens via various mechanisms including clathrin-mediated endocytosis, caveolae-mediated endocytosis, and macropinocytosis. To define which pathway(s) were involved in the co-uptake of DNA and protein immunogens, JAWS II cells were pretreated with MDC, a specific inhibitor of clathrin formation, or filipin, an inhibitor of caveolae trafficking, before being treated with pOVA323+OVA323. […] Another inhibitor, amiloride, an inhibitor for macropinocytosis, had no effect on CD40 expression (FIG. 37).

[5] = tested on: CD8 T cells co-cultured with peritoneal macrophages or spleen dendritic cells; test: APC and CD8 T cell co-culture, S208-215 restimulation; format: cell-based, mice; conditions: macrophages and DCs co-culture system
Method: With respect to co-cultures, pcD-S2 (10 μg/ml) with or without 100 μM amiloride treat APCs, peritoneal macrophage or spleen dendrtic cell, were cultured for 2 days. At day3, purified CD8 T cell (R&D systems, USA) was added into culture with APC:T ratio of 1:5, 1:2, 1:1. At day 8, cells were collected and restimulated with S208-215 (10 μg/ml). PMA+Ionomycin was added as positive control for restimulation.
During the co-culture, HBsAg-derived peptide S208-215 (ILSPFLPL; H-2 Kb-restricted) was used to re-stimulate. Proportions of responsive T cells were analyzed.

[6] = tested on: RAW264.7, JAWSII and DC2.4; test: Cy5-pEGFP plasmid entry and GFP expression in APC cell lines with amiloride; format: cell-based, mouse; conditions: vs un-treated cells
[7] = tested on: CD4+CD25− naive T cells; test: Foxp3-GFP induction in naive T cells with anti-CD3/anti-CD28 and cytokines; format: cell-based, Foxp3gfp mouse
[8] = target: T1, MHC-II (I-Ad) (Mus musculus, UniProt P01921+P04228); test: Tetramer staining-based epitope competition assay; format: binding
T1 construct: purchased NIH Tetramer Core Facility
T1 sequence (P04228 24-218 limits assumed): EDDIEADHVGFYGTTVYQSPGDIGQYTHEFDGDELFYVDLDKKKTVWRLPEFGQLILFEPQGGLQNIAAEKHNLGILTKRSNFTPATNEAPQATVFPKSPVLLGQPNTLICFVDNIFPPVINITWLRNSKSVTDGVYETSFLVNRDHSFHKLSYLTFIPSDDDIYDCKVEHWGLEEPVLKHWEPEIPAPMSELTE
T1 sequence (P01921 28-226 limits assumed): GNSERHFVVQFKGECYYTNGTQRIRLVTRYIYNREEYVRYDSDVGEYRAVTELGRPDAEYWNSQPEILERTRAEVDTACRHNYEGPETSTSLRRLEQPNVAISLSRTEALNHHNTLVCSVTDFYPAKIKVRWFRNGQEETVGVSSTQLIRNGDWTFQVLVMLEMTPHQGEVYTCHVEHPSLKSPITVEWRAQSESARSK
Method: To further determine how antigenicity affects CD25^− iTreg induction, a set of mutated epitopes were generated from OVA323-339 (SEQ ID NO:187). Using a tetramer staining-based epitope competition assay, the affinity of each of the mutated epitopes for MHC-II was assessed. […] OVA323-339, MT1, and MT2 as probes for antigenicity studies were therefore selected.
With respect to the tetramer competition assay, PE-conjugated OVA323-339-loaded I-Ad tetramer (NIH Tetramer Core Facility) was competed with OVA323-339 or a mutant peptide by incubation of 2×10^5 DO11.10 T cells, the OVA323-339 tetramer, and a competing peptide together for 5 minutes. Five volumes of medium with 10% FCS were added to stop the competition. Cells were washed 3 times and immediately analyzed for PE-positive T cells by flow cytometer.

[9] = tested on: splenic CD4+ T cells; test: In vitro restimulation of T cells from FSA1 sensitized mice; format: cell-based, C57BL/6 mice; conditions: than P66
Method: Splenic CD4^+ T cells from flea antigen immunized C57BL/6 mice were restimulated with P100 or P66 (5 ug/ml) in culture. T cell proliferation was determined by a 3-(4,5-Dimethylthiazol-2-yl)-2,5-diphenyltetrazolium bromide (MTT, a yellow tetrazole)-based assay. Concanavalin A (1 ug/ml) and BSA (1 ug/ml) were used as positive and negative controls, respectively. *, p<0.05. Shown is one of three independent experiments with similar results.
Flea allergic dermatitis is an allergic reaction to flea allergen that is mediated by CD4^+ T effector cells. To the above findings to a disease model, two antigenic epitopes from the flea allergen FSA1 were chosen, namely P66 (amino acids 66-80) (SEQ ID NO:189) and P100 (amino acids 100-114) (SEQ ID NO:188). […] This prediction was confirmed by sensitizing C57BL/6 mice (I-Ab^+) with full-length FSA1 followed by an in vitro restimulation assay using one of the epitopes.
With respect to T cell proliferation, MTT-based and CF SE-based T cell proliferation assays were performed as described before.

[10] = tested on: flea allergic dermatitis; test: Prophylactic co-immunization in flea allergic dermatitis model; format: in vivo, C57BL/6 mice; conditions: than P66
From the text: To see whether the difference in antigenicity influences the induction of CD25^− iTreg cells by these two epitopes, C57BL/6 mice were prophylactically treated with co-immunization using the combination of DNA and protein vaccines targeting each epitope (designated as Co100 or Co66). Seven days after co-immunization, the animals were sensitized with flea saliva extracts, followed by a delayed-type hypersensitivity assay to determine to which extent the prophylactic co-immunization prevents the development of an allergic reaction.
With respect to tolerogenic immunization, Balb/c mice were injected intramuscular (i.m.) on days 0 and 14 with 100 ug each of OVA323-339 and pVAX1-OVA, MT1 and pVAX1-MT1, or MT2 and pVAX1-MT2. C57BL/6 mice were similarly injected with P100 and D100, or P66 and D66.
With respect to the intradermal test and histology, antigen-sensitized C57BL/6 mice were challenged intradermally (i.d.) with 10 ug of FSA (Greer Laboratories) on the nonlesional lateral thorax skin. PBS is used as a sham control and histamine is used as a positive control. The diameter of the skin reaction was measured within 30 min after challenge using a calibrated micrometer. Skin samples were collected within 30 min of antigen challenge, fixed in 4% paraformaldehyde, embedded in paraffin, and sectioned. […]

## N=C(N)NC(=O)c1nc(Cl)c(N)nc1N [amiloride]
[1]; amiloride 10 μM
  percentage of Cy5-plasmid+ cells in lymph nodes (LN): increased
[1]; amiloride 100 μM
  percentage of Cy5-plasmid+ cells in lymph nodes (LN): peaked
[1]; amiloride 1 mM
  percentage of Cy5-plasmid+ cells in lymph nodes (LN): decreased
[2]; pcD-S2 plasmid with amiloride treatment
  expression of CD40, CD80 and CD86: higher levels of expression of CD40, CD80 and CD86
[2]; vs same cells without amiloride treatment
  expression of TNF and IFN-γ: higher levels of expression of TNF and IFN-γ
[3]
  levels of antibody against HBsAg: increased
[4]; amiloride (5 mM) for 10 min
  effect on CD40 expression: no effect
[5]
  percentage of S208-215 specific triple positive CD8 T effectors: significantly increased
[6]; 1 mM amiloride 1 h, after 3 days culture
  GFP expression: significantly higher level of GFP
[6]; pre-treated with 1 mM amiloride for 1 h, within 2 hrs
  uptake of Cy5-labeled pEGFP plasmids: significantly taken up

## TGF-β1: titrated rhTGF-β1 (PeproTech)
[7]
  GFP (Foxp3) expression in CD25− T cells: up-regulated

## ISQAVHAAHAEINEAGR (listed as Gallus gallus) [OVA323-339]
[8]
  order of affinity for MHC-II: OVA323-339>MT1>MT2=MT3

## GPDWKVSKECKDPNN (Pulex irritans) [P100]
[9]
  T cell proliferation: significantly more vigorous T cell proliferation
[10]
  CD25− iTreg induced: induced more

## CCCCC[C@@H](O)[C@H]1C(=O)O[C@H](C)[C@@H](O)/C=C/C=C/C=C/C=C/C=C(\C)[C@@H](O)C[C@H](O)C[C@H](O)C[C@H](O)C[C@H](O)C[C@H](O)C[C@@H]1O [filipin]
[4]
  relative effectiveness in preventing CD40low phenotype: more effective than MDC
  effect on CD40low phenotype: could prevent

## CN(C)c1cccc2c(S(=O)(=O)NCCCCCN)cccc12 [MDC, monodansylcadaverine]
[4]
  effect on CD40low phenotype: could prevent

B1: IL-10: rmIL10 (PeproTech) (protein, UniProt P18893 19-178, looked up)
Interleukin-10: SRGQYSREDNNCTHFPVGQSHMLLELRTAFSQVKTFFQTKDQLDNILLTDSLMQDFKGYLGCQALSEMIQFYLVEVMPQAEKHGPEIKEHLNSLGEKLKTLRMRLRRCHRFLPCENKSKAVEQVKSDFNKLQDQGVYKAMNEFDIFINCIEAYMMIKMKS
[7]
  GFP (Foxp3) expression in CD25− T cells: neither alone influenced the expression of Foxp3
